Where a name gives a salt, the structure may show the parent alone. Read-outs that look alike come from different tables or passages of the source.
Columns and labels:
[1] = tested on: SW620 human colorectal cancer cells; experiment: MTT based cell viability assay: potentiation of the growth inhibiting activity of MMS
[2] = tested on: Human breast cancer cell line T47D; experiment: Cell based caspase-3 activity assay: potentiation of MMS induced apoptosis; details: T47D cells, 11.1 μg/ml MMS, 24 hours, intracellular caspase-3 activity, read-out: EC50 (nM), potentiation of the apoptosis inducing activity of MMS
From the text: Determination of the synergistic potentiation effect of 1-(3-(4-(pyrimidin-2-yl)piperazine-1-carbonyl)benzyl)quinazoline-2,4(1H,3H)-dione and analogs on MMS induced apoptosis using a cell based caspase-3 activity assay
Human breast cancer cell line T47D was used to determine the potentiation effect of PARP inhibitors on the apoptosis inducing activity of DNA damaging anticancer drugs such as MMS. Intracellular caspase-3 activity was used to measure cell apoptosis. The dose response effect of MMS to induce intracellular caspase activity was carefully titrated and the concentration that only induces a minimal level of caspase activity was used to test the potentiation effect of PARP inhibitors. Briefly, T47D cells were grown in DMEM/F12 cell culture medium (Hyclone) supplemented with 0.2 U/ml insulin (Genview) and 10% FBS (Hyclone). A day before experiment, 20000 of T47D cells were seeded to each well of a 96-well cell culture plate and maintained at 37° C. and 5% CO2 in a cell culture incubator overnight. On the day of experiment, cell culture medium was removed. One hundred and eighty μl of fresh medium containing 11.1 μg/ml MMS was added to each well and followed by 20 μl medium containing 10 folds of the concentrations of experimental drugs or reference compounds (ADZ2281 and ABT-888). The serial dilutions of the compounds to be tested and the reference compounds were made in a 1:3 and 1:10 fashion in DMSO. The 10-fold compound solutions were made by mixing 10 μl DMSO serial dilution solutions with 90 μl fresh growth medium. Twenty four hours later, the cells in the 96-well plates were centrifuged at 1000 g for 5 min and the supernatants were removed. Fifty μl lysis buffer (10 mM Tris, pH7.5, 0.1M NaCl, 1 mM EDTA, 0.01% Triton X-100) was added to each well and the plates were shaked horizontally for 30 min at 4° C. After centrifugation at 1000 g at 4° C. for 10 min, 20 μl of supernatant was transferred from each well to a corresponding well in a 384-well black plate. Twenty μl of buffer (20 mM PIPES, pH7.4, 4 mM EDTA and 0.2% CHAPS) containing 20 μM fluorescent caspase-3 substrate ((Ac-DEVD)2-R110, AnaSpec Cat #60304-5) was added to each well afterwards. The plates were shaked to uniformly mix the wells and incubated at 37° C. for 3 h. The fluorescence intensity was measured using the following wavelength: ex: 496 nm, em: 520 nm using a fluorescence plate reader (Varioskan Flash, Thermo Fisher Scientific). The caspase-3 activity induced by the compounds was expressed as a relative fluorescence unit (RFU). The obtained fluorescence readings were analyzed using a commercial graphic software (GraphPad Prism 5) and plotted against the Log value of the compound concentrations. The EC50 values were obtained by fitting the data points with the equation of Y (fluorescence reading)=minimal fluorescence reading+(maximal fluorescence reading−minimal fluorescence reading)/(1+10^(Log EC50−Log C)), where C is the concentration of the testing compound.
The synergistic potentiation effect of compounds on MMS induced apoptosis in T47D cells is expressed as EC50 values and listed in Table 2.

[3] = Homo sapiens, SW-620, 120 h, read-out: IC50 (nM), potentiation of the growth inhibiting activity of MMS, SW620 cells, 1.7 μg/ml MMS, 5 days (120 hours), MTT

| SMILES | IC50 [1, 3] [nM] | EC50 ([2]; Homo sapiens, T47D, 24 h) [nM] | IC50 ([1]; read-out: IC50 (nM), potentiation of the growth inhibiting activity of MMS, SW620 cells, 1.7 μg/ml MMS, 5 days (120 hours), MTT) [nM] | EC50 [2] [nM] |
| --- | --- | --- | --- | --- |
| O=C(c1cccc(Cn2c(=O)[nH]c(=O)c3ccccc32)c1Cl)N1CCN(C(=O)C2CCCC2)CC1 [Example 59, 1-(2-Chloro-3-(4-(cyclopentylcarbonyl)piperazine-1-carbonyl)benzyl)quinazoline-2,4(1H,3H)-dione] | > 10000 | > 10000 |  |  |
| O=C(c1ccc(Cl)c(Cn2c(=O)[nH]c(=O)c3ccccc32)c1)N1CCN(C(=O)C2CCCC2)CC1 [Example 55, 1-(6-Chloro-3-(4-(cyclopentylcarbonyl)piperazine-1-carbonyl)benzyl)quinazoline-2,4(1H,3H)-dione] | 89 | 20 |  |  |
| O=C(c1ccc(F)cc1)N1CCN(C(=O)c2ccc(Cn3c(=O)[nH]c(=O)c4ccccc43)cc2)CC1 [Example 96, 1-(4-(4-(4-Fluorobenzoyl)piperazine-1-carbonyl)benzyl)quinazoline-2,4(1H,3H)-dione] | > 10000 | > 10000 |  |  |
| O=C(c1ccccc1)N1CCN(C(=O)c2cc(Cn3c(=O)[nH]c(=O)c4c(F)cccc43)ccc2F)CC1 [Example 137, 1-(3-(4-Benzoylpiperazine-1-carbonyl)-4-fluorobenzyl)-5-fluoroquinazoline-2,4(1H,3H)-dione] | 7 | 2.1 |  |  |
| O=C(NCc1ccccc1)c1cc(Cn2c(=O)[nH]c(=O)c3c(F)cccc32)ccc1F [Example 202, 1-(3-(Benzylcarbamoyl)-4-fluorobenzyl)-5-fluoroquinazoline-2,4(1H,3H)-dione] | > 10000 | > 10000 |  |  |
| O=C(c1cccc(Cn2c(=O)[nH]c(=O)c3cc(Cl)ccc32)c1)N1CCN(C(=O)c2cccs2)CC1 [Example 115, 6-Chloro-1-(3-(4-(thiophene-2-carbonyl)piperazine-1-carbonyl)benzyl)quinazoline-2,4(1H,3H)-dione] | 19 | 23 |  |  |
| O=C(c1cc(Cn2c(=O)[nH]c(=O)c3cc(Cl)ccc32)ccc1F)N1CCN(C(=O)C2CC2)CC1 [Example 122, 6-Chloro-1-(3-(4-(cyclopropylcarbonyl)piperazine-1-carbonyl)-4-fluorobenzyl)quinazoline-2,4(1H,3H)-dione] |  | 8.4 |  |  |
| O=C(c1cccs1)N1CCN(C(=O)c2cc(Cn3c(=O)[nH]c(=O)c4cc(F)ccc43)ccc2F)CC1 [Example 146, 6-Fluoro-1-(4-fluoro-3-(4-(thiophene-2-carbonyl)piperazine-1-carbonyl)benzyl)quinazoline-2,4(1H,3H)-dione] | 3.4 | 4.1 |  |  |
| O=C(c1ccc(F)c(Cn2c(=O)[nH]c(=O)c3c(F)cccc32)c1)N1CCN(C(=O)C2CCCC2)CC1 [Example 158, 1-(3-(4-(Cyclopentylcarbonyl)piperazine-1-carbonyl)-6-fluorobenzyl)-5-fluoroquinazoline-2,4(1H,3H)-dione] | 7.8 | 8.6 |  |  |
| COc1cccc2c(=O)[nH]c(=O)n(Cc3cccc(C(=O)N4CCN(c5ncccn5)CC4)c3)c12 [Example 227, 8-Methoxy-1-(3-(4-(pyrimidin-2-yl)piperazine-1-carbonyl)benzyl)quinazoline-2,4(1H,3H)-dione] | 13 | 40 |  |  |
| O=C(c1cccc(Cn2c(=O)[nH]c3ccccc3c2=O)c1)N1CCN(c2ncccn2)CC1 [Example 228, 3-(3-(4-(Pyrimidin-2-yl)piperazine-1-carbonyl)benzyl)quinazoline-2,4(1H,3H)-dione] | > 10000 | > 10000 |  |  |
| O=C(c1cccc(Cn2c(=O)[nH]c(=O)c3cc(Cl)ccc32)c1)N1CCN(C(=O)C2CCC2)CC1 [Example 116, 6-Chloro-1-(3-(4-(cyclobutylcarbonyl)piperazine-1-carbonyl)benzyl)quinazoline-2,4(1H,3H)-dione] | 48 | 13 |  |  |
| O=C(c1cccc(Cn2c(=O)[nH]c(=O)c3ccccc32)c1F)N1CCN(C(=O)C2CCCC2)CC1 [Example 62, 1-(3-(4-(Cyclopentylcarbonyl)piperazine-1-carbonyl)-2-fluorobenzyl)quinazoline-2,4(1H,3H)-dione] | 816 | 379 |  |  |
| O=C(c1cccc(Cn2c(=O)[nH]c(=O)c3ccccc32)c1)N1CCN(c2ncccn2)CC1 [Example 194, 1-(3-(4-(Pyrimidin-2-yl)piperazine-1-carbonyl)benzyl)quinazoline-2,4(1H,3H)-dione hydrochloride] | 18 | 11 |  |  |
| O=C(c1cccc(Cn2c(=O)[nH]c(=O)c3ccccc32)n1)N1CCN(c2ncccn2)CC1 [Example 71, 1-((2-(4-(Pyrimidin-2-yl)piperazine-1-carbonyl)pyridin-6-yl)methyl)quinazoline-2,4(1H,3H)-dione] | 70 | 67 |  |  |
| O=C(c1cccc(Cn2c(=O)[nH]c(=O)c3cc4c(cc32)OCO4)c1)N1CCN(c2ncccn2)CC1 [Example 216, 6,7-Methylenedioxo-1-(3-(4-(pyrimidin-2-yl)piperazine-1-carbonyl)benzyl)quinazoline-2,4(1H,3H)-dione] |  |  | > 10000 | > 10000 |
| O=C(c1cc(F)cc(Cn2c(=O)[nH]c(=O)c3ccccc32)c1)N1CCN(C(=O)C2CCCC2)CC1 [Example 64, 1-(3-(4-(Cyclopentylcarbonyl)piperazine-1-carbonyl)-5-fluorobenzyl)quinazoline-2,4(1H,3H)-dione] | 177 | 51 |  |  |
| O=C(c1cccc(Cn2c(=O)[nH]c(=O)c3ccccc32)c1)c1ccc2nncn2c1 [Example 198, 1-(3-([1,2,4]Triazolo[4,3-a]pyridine-6-carbonyl)benzyl)quinazoline-2,4(1H,3H)-dione] | > 10000 | > 10000 |  |  |
| O=C(c1cccc(Cn2c(=O)[nH]c(=O)c3ccccc32)c1)N1CCN(C(=O)c2ccco2)CC1 [Example 33, 1-(3-(4-(Furan-2-carbonyl)piperazine-1-carbonyl)benzyl)quinazoline-2,4(1H,3H)-dione] | 130 | 96 |  |  |
| O=C(c1ccc(Cl)cc1)N1CCN(C(=O)c2cccc(Cn3c(=O)[nH]c(=O)c4ccccc43)c2)CC1 [Example 10, 1-(3-(4-(4-Chlorobenzoyl)piperazine-1-carbonyl)benzyl)quinazoline-2,4(1H,3H)-dione] | 439 | 400 |  |  |
| O=C(c1cc(Cn2c(=O)[nH]c(=O)c3c(Cl)cccc32)ccc1F)N1CCN(c2ccccn2)CC1 [Example 106, 5-Chloro-1-(4-fluoro-3-(4-(pyridin-2-yl)piperazine-1-carbonyl)benzyl)quinazoline-2,4(1H,3H)-dione] | 105 | 217 |  |  |
| O=C(c1ccc(F)c(Cn2c(=O)[nH]c(=O)c3c(F)cccc32)c1)N1CCN(C(=O)C2CCC2)CC1 [Example 182, 1-(3-(4-(Cyclobutylcarbonyl)piperazine-1-carbonyl)-6-fluorobenzyl)-5-fluoroquinazoline-2,4(1H,3H)-dione] | 16 | 14 |  |  |
| O=C(c1cccc(Cn2c(=O)[nH]c(=O)c3cccc(F)c32)c1)N1CCN(c2ncccn2)CC1 [Example 218, 8-Fluoro-1-(3-(4-(pyrimidin-2-yl)piperazine-1-carbonyl)benzyl)quinazoline-2,4(1H,3H)-dione] | 103 | 37 |  |  |
| O=C(NC1CCCCC1)N1CCN(C(=O)c2cccc(Cn3c(=O)[nH]c(=O)c4ccccc43)c2)CC1 [Example 191, 1-(3-(4-(Cyclohexylcarbamoyl)piperazine-1-carbonyl)benzyl)quinazoline-2,4(1H,3H)-dione] | 192 |  |  |  |
